From patent US10844077B2, “Thiazolyl-containing compounds for treating proliferative diseases” (Dana-Farber Cancer Institute, Inc., priority 2014, dated 2020)
“And” between values parts separate entries of the source, which are not always exact repeats. Identical values can stand only once. Like-named read-outs stand apart in the source and are kept apart here.

How the values were obtained:
Type in all cases: cell-based
kinases in BCWM.1 cells [1] = target: kinases in BCWM.1 cells (Homo sapiens, UniProt O95819); test: KINATIV assay of compounds I-3 and I-9, lysate directly labeled with ATP-biotin probe (no GF); details: ZC1/HGK; Lys1; 1 μM, 90 min; no GF
kinases in BCWM.1 cells (Homo sapiens, UniProt O95819), sequence (O95819 2-1239 limits assumed): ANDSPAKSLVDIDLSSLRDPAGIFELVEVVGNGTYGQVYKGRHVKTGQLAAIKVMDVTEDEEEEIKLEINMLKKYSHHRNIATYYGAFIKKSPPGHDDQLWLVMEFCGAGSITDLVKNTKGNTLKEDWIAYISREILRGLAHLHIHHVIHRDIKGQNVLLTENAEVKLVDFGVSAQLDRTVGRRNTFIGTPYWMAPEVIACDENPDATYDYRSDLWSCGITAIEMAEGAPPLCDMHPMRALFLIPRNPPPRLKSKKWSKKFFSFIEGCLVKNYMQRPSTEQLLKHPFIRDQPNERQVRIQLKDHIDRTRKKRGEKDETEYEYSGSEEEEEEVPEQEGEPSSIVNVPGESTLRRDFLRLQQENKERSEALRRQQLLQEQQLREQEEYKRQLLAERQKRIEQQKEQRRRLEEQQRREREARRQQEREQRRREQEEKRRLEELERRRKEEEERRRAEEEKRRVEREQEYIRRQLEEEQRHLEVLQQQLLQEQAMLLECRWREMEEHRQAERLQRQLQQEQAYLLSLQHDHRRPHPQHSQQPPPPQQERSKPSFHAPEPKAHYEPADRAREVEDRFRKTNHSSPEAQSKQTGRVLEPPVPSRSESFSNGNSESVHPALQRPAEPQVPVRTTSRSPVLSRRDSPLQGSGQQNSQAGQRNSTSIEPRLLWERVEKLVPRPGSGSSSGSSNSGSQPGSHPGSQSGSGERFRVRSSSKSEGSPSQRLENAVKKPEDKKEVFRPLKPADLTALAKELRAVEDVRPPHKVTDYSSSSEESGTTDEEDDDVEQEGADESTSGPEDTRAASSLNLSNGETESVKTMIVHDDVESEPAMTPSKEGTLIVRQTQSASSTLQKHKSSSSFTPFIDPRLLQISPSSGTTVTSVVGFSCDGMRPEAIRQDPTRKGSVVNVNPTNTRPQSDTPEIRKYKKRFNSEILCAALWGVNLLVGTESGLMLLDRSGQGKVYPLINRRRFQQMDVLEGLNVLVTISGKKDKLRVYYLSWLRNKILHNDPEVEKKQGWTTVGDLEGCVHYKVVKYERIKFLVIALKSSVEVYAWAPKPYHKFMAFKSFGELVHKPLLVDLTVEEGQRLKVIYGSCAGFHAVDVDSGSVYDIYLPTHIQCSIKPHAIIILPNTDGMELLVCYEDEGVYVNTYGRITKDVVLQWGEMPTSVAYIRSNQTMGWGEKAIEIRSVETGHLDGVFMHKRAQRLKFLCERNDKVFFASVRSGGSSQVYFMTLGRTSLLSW
Description: (§1) The cells were harvested and lysed. […] Bound kinases were identified and quantitated by ACTIVX as described in Patricelli et al., Biochemistry, 2007, 46(2): 350-358. The compounds were tested in duplicates against duplicate or quadruplicate control samples.

kinases in BCWM.1 cells [2] = target: kinases in BCWM.1 cells (Homo sapiens, UniProt Q58A45); test: as above; details: PAN3; Protein Kinase Domain; 1 μM, 90 min; no GF
Description: as §1

kinases in BCWM.1 cells [3] = target: kinases in BCWM.1 cells (Homo sapiens, UniProt Q7RTN6); test: as above; details: STLK5; Activation Loop; 1 μM, 90 min; no GF
Description: as §1

kinases in BCWM.1 cells [4] = target: kinases in BCWM.1 cells (Homo sapiens, UniProt Q86Y07); test: as above; details: VRK2; Lys2; 1 μM, 90 min; no GF
Description: as §1

kinases in BCWM.1 cells [5] = target: kinases in BCWM.1 cells (Homo sapiens, UniProt Q9NRH2); test: as above; details: SNRK; Lys2; 1 μM, 90 min; no GF
Description: as §1

kinases in BCWM.1 cells [6] = target: kinases in BCWM.1 cells (Homo sapiens, UniProt Q9NZJ5); test: as above; details: PEK; Lys2; 1 μM, 90 min; no GF
kinases in BCWM.1 cells (Homo sapiens, UniProt Q9NZJ5), sequence (Q9NZJ5 30-1116 limits assumed): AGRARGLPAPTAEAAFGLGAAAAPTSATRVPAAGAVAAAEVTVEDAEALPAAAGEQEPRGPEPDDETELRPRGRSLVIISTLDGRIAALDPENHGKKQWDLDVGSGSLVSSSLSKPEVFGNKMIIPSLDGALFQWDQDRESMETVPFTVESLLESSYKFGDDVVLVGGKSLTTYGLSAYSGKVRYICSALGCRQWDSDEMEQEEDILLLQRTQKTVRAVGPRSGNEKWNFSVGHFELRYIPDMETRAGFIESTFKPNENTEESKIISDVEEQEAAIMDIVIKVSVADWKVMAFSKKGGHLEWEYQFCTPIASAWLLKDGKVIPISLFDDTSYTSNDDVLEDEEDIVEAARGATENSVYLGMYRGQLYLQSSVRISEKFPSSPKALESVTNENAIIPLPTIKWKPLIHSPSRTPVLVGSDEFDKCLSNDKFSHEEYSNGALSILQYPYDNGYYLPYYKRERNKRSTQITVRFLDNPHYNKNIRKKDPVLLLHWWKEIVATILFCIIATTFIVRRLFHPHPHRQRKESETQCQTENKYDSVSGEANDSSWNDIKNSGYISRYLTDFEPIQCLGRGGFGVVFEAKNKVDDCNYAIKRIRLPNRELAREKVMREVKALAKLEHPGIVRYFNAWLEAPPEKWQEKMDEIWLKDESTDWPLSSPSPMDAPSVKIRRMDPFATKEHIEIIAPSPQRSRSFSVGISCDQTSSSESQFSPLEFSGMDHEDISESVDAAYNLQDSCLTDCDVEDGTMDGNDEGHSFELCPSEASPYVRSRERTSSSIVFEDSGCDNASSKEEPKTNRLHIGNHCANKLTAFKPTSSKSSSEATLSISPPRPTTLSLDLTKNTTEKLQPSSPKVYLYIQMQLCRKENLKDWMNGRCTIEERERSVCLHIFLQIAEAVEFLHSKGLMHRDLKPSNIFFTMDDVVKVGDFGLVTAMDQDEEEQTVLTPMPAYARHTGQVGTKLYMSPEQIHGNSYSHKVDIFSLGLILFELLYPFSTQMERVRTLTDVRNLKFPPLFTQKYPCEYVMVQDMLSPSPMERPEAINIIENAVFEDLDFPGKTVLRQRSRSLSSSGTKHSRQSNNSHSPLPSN
Description: as §1

kinases in BCWM.1 cells [7] = target: kinases in BCWM.1 cells (Homo sapiens, UniProt Q99755); details: PIP5K1A; ATP; 1 μM, 90 min; GF
Description: as §1

kinases in BCWM.1 cells [8] = target: kinases in BCWM.1 cells (Homo sapiens, UniProt O14936); details: CASK; Lys1; 1 μM; GF
Description: as §1

kinases in BCWM.1 cells [9] = target: kinases in BCWM.1 cells (Homo sapiens, UniProt O75582); details: MSK1 domain1; Lys2; 1 μM; GF
Description: as §1

kinases in BCWM.1 cells [10] = target: kinases in BCWM.1 cells (Homo sapiens, UniProt O95835); details: LATS1; Lys1; 1 μM; GF
Description: as §1

kinases in BCWM.1 cells [11] = target: kinases in BCWM.1 cells (Homo sapiens, UniProt P06493); details: CDC2; Protein Kinase Domain; 1 μM; GF
Description: as §1

kinases in BCWM.1 cells [12] = target: kinases in BCWM.1 cells (Homo sapiens, UniProt P07948); details: LYN; Lys1; 1 μM; GF
Description: as §1

kinases in BCWM.1 cells [13] = target: kinases in BCWM.1 cells (Homo sapiens, UniProt P11802); details: CDK4; Lys2; 1 μM; GF
kinases in BCWM.1 cells (Homo sapiens, UniProt P11802), sequence (P11802 2-303 limits assumed): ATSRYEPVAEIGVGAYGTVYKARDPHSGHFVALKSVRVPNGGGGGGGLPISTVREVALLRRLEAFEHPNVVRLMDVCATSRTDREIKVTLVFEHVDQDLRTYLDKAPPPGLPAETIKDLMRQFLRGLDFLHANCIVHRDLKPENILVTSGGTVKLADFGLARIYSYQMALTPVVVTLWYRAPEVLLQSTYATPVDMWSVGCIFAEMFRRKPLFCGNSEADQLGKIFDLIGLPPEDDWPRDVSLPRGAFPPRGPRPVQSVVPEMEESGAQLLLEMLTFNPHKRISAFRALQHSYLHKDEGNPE
Description: as §1

kinases in BCWM.1 cells [14] = target: kinases in BCWM.1 cells (Homo sapiens, UniProt P23458); details: 1 μM, GF
Description: as §1

kinases in BCWM.1 cells [15] = target: kinases in BCWM.1 cells (Homo sapiens, UniProt P41240); details: CSK; Activation Loop; 1 μM; GF
Description: as §1

kinases in BCWM.1 cells [16] = target: kinases in BCWM.1 cells (Homo sapiens, UniProt P45985); details: MAP2K4; Lys2; 1 μM; GF
kinases in BCWM.1 cells (Homo sapiens, UniProt P45985), sequence (P45985 2-399 limits assumed): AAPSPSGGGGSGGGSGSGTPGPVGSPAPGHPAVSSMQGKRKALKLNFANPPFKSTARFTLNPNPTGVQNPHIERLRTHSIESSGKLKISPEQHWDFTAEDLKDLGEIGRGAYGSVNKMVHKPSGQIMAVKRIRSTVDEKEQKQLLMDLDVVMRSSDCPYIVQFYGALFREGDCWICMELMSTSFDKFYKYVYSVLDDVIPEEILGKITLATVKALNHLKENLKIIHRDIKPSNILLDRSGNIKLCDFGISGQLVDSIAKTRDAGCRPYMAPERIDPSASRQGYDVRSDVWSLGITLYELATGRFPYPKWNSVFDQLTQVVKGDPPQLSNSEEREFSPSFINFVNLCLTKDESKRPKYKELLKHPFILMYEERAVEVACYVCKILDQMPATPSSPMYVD
Description: as §1

kinases in BCWM.1 cells [17] = target: kinases in BCWM.1 cells (Homo sapiens, UniProt P49760); details: CLK2; Lys2; 1 μM; GF
Description: as §1

kinases in BCWM.1 cells [18] = target: kinases in BCWM.1 cells (Homo sapiens, UniProt P80192); details: MLK1; Lys2; 1 μM; GF
Description: as §1

kinases in BCWM.1 cells [19] = target: kinases in BCWM.1 cells (Homo sapiens, UniProt Q00534); details: CDK6; Lys2; 1 μM; GF
Description: as §1

kinases in BCWM.1 cells [20] = target: kinases in BCWM.1 cells (Homo sapiens, UniProt Q13233); details: MAP3K1; Lys2; 1 μM; GF
kinases in BCWM.1 cells (Homo sapiens, UniProt Q13233), sequence (Q13233 2-1512 limits assumed): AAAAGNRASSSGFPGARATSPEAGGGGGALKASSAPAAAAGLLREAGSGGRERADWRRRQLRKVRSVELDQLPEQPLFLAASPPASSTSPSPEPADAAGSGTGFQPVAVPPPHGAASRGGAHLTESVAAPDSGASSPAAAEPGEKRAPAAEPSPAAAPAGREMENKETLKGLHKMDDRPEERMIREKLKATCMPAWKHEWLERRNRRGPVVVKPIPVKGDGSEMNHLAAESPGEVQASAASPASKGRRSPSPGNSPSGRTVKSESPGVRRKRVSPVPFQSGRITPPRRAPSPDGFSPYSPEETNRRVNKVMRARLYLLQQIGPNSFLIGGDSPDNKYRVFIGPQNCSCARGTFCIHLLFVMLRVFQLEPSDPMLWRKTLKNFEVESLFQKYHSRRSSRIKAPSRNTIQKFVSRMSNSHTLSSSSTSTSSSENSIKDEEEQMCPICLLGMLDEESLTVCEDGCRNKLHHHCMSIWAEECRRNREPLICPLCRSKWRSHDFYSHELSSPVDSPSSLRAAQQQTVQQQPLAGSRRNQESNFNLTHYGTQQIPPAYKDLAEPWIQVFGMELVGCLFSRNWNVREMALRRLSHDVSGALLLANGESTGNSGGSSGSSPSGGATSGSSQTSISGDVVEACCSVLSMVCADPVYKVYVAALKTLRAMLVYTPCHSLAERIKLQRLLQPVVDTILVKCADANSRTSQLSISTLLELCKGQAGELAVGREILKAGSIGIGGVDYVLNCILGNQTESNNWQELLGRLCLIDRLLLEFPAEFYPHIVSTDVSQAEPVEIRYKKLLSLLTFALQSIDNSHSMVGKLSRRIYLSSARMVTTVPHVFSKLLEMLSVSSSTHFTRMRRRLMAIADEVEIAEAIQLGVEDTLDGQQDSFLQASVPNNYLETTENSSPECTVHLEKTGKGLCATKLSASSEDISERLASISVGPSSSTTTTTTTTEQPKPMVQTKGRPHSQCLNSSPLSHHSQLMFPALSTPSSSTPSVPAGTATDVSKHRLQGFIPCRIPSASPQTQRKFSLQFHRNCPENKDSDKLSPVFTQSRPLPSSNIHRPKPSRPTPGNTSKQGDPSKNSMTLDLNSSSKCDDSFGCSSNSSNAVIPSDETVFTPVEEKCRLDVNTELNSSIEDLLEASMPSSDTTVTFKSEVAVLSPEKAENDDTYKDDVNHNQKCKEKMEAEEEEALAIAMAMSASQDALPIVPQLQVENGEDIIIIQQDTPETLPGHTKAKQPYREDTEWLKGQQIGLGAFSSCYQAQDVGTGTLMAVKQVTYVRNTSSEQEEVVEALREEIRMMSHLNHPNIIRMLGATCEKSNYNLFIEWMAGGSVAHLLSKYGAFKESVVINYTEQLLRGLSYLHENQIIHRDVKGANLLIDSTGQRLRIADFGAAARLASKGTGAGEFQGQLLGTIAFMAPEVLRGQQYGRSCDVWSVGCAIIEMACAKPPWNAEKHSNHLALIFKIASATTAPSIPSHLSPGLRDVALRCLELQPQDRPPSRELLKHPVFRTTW
Description: as §1

kinases in BCWM.1 cells [21] = target: kinases in BCWM.1 cells (Homo sapiens, UniProt Q13535); details: ATR; ATP; 1 μM; GF
Description: as §1

kinases in BCWM.1 cells [22] = target: kinases in BCWM.1 cells (Homo sapiens, UniProt Q13557); details: CaMK2d; Lys1; 1 μM; GF
kinases in BCWM.1 cells (Homo sapiens, UniProt Q13557), sequence (Q13557 2-499 limits assumed): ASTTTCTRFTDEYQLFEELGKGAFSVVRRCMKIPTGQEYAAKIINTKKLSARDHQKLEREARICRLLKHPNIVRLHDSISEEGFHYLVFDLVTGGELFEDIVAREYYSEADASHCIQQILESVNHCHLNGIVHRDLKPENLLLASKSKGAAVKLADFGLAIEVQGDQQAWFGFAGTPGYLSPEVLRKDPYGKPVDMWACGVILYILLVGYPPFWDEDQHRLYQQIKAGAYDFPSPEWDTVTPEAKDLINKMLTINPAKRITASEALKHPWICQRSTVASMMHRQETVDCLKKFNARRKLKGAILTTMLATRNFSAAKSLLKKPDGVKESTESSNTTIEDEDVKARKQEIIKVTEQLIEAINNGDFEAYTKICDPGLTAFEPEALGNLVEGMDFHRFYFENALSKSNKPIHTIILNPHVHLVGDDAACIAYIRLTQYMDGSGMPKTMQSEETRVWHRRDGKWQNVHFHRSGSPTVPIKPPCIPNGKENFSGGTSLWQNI
Description: as §1

kinases in BCWM.1 cells [23] = target: kinases in BCWM.1 cells (Homo sapiens, UniProt Q14004)
Description: as §1

kinases in BCWM.1 cells [24] = target: kinases in BCWM.1 cells (Homo sapiens, UniProt Q16566); details: CaMK4; Lys2; 1 μM; GF
Description: as §1

kinases in BCWM.1 cells [25] = target: kinases in BCWM.1 cells (Homo sapiens, UniProt Q8IU85); details: CaMKld; Lys1; 1 μM; GF
Description: as §1

kinases in BCWM.1 cells [26] = target: kinases in BCWM.1 cells (Homo sapiens, UniProt Q96GD4); details: AurB; Lys1; 1 μM; GF
Description: as §1

kinases in BCWM.1 cells [27] = target: kinases in BCWM.1 cells (Homo sapiens, UniProt Q9P2K8); details: GCN2; Lys2; 1 μM; GF
Description: as §1

kinases in BCWM.1 cells [28] = target: kinases in BCWM.1 cells (Homo sapiens, UniProt Q9Y4K4); details: KHS1; Lys1; 1 μM; GF
Description: as §1

kinases in BCWM.1 cells [29] = target: kinases in BCWM.1 cells (Homo sapiens, UniProt Q9Y616); details: IRAK3; Lys1; 1 μM; GF
Description: as §1

kinases in BCWM.1 cells [30] = target: kinases in BCWM.1 cells (Homo sapiens, UniProt Q9Y6R4); details: MAP3K4; Lys2; 1 μM; GF
Description: as §1

## C=CC(=O)N1CC[C@H](Nc2nccc(Nc3ncc(C(=O)Nc4c(C)cccc4C)s3)n2)C1 [Example I-3]
Kinases in BCWM.1 cells [1]
  % change of MS signal compared to control sample: −14.8%
Kinases in BCWM.1 cells [2]
  % change of MS signal compared to control sample: −17.5%
Kinases in BCWM.1 cells [3]
  % change of MS signal compared to control sample: 10.4%
Kinases in BCWM.1 cells [4]
  % change of MS signal compared to control sample: −13.9%
Kinases in BCWM.1 cells [5]
  % change of MS signal compared to control sample: 46.4%
Kinases in BCWM.1 cells [6]
  % change of MS signal compared to control sample: −12.8%
Kinases in BCWM.1 cells [7]
  % change of MS signal compared to control sample: 30.5%

## CCC(=O)N1CC[C@H](Nc2nccc(Nc3ncc(C(=O)Nc4c(C)cccc4C)s3)n2)C1 [Example I-9]
Kinases in BCWM.1 cells [1]
  % change of MS signal compared to control sample: 20.9%
Kinases in BCWM.1 cells [2]
  % change of MS signal compared to control sample: 23.2%
Kinases in BCWM.1 cells [3]
  % change of MS signal compared to control sample: −12.9%
Kinases in BCWM.1 cells [4]
  % change of MS signal compared to control sample: 6.2%
Kinases in BCWM.1 cells [5]
  % change of MS signal compared to control sample: 28.6%
Kinases in BCWM.1 cells [6]
  % change of MS signal compared to control sample: 22.1%
Kinases in BCWM.1 cells [8]
  % change of MS signal compared to control sample: −10.4%
Kinases in BCWM.1 cells [9]
  % change of MS signal compared to control sample: −22.8% and −23.9%
Kinases in BCWM.1 cells [10]
  % change of MS signal compared to control sample: −2.8% and 5.4%
Kinases in BCWM.1 cells [11]
  % change of MS signal compared to control sample: −2.6% and −3.2%
Kinases in BCWM.1 cells [12]
  % change of MS signal compared to control sample: 85.2% and 94%
Kinases in BCWM.1 cells [13]
  % change of MS signal compared to control sample: 1.2% and 3.4%
Kinases in BCWM.1 cells [14]; JAK1, Protein Kinase Domain
  % change of MS signal compared to control sample: −11.5% and −6.7%
Kinases in BCWM.1 cells [14]; JAK1 domain2, Activation Loop
  % change of MS signal compared to control sample: −15.6% and −13.9%
Kinases in BCWM.1 cells [14]; JAK1 domain2, Lys1
  % change of MS signal compared to control sample: −18.1% and −14.4%
Kinases in BCWM.1 cells [15]
  % change of MS signal compared to control sample: −6% and 1.5%
Kinases in BCWM.1 cells [16]
  % change of MS signal compared to control sample: −5.4% and −2.1%
Kinases in BCWM.1 cells [17]
  % change of MS signal compared to control sample: −19.3% and −10.6%
Kinases in BCWM.1 cells [18]
  % change of MS signal compared to control sample: 1% and 9%
Kinases in BCWM.1 cells [19]
  % change of MS signal compared to control sample: 2.7% and 3.5%
Kinases in BCWM.1 cells [20]
  % change of MS signal compared to control sample: 11.1% and 9.8%
Kinases in BCWM.1 cells [21]
  % change of MS signal compared to control sample: 28.1% and 16.5%
Kinases in BCWM.1 cells [22]
  % change of MS signal compared to control sample: −8.1% and −8.2%
Kinases in BCWM.1 cells [23]
  % change of MS signal compared to control sample: 5.7% and 15.3%
Kinases in BCWM.1 cells [24]
  % change of MS signal compared to control sample: −10.3% and −13.1%
Kinases in BCWM.1 cells [25]
  % change of MS signal compared to control sample: −7.5% and −4.6%
Kinases in BCWM.1 cells [26]
  % change of MS signal compared to control sample: −20.6% and −21.5%
Kinases in BCWM.1 cells [27]
  % change of MS signal compared to control sample: −18.8% and −10.7%
Kinases in BCWM.1 cells [28]
  % change of MS signal compared to control sample: −7.5% and −8.7%
Kinases in BCWM.1 cells [29]
  % change of MS signal compared to control sample: 7.2% and −1.4%
Kinases in BCWM.1 cells [30]
  % change of MS signal compared to control sample: 3.2% and 10.9%
